The test deals with T1, human neurokinin-1-receptor (NK1R) (Homo sapiens, UniProt P25103).
T1 construct: expressed in transfected cells
Nature of the test: Substance P antagonism assay: 125I-substance P binding to human NK1R expressed in COS or CHO cells. The settings on record: 125I-substance P displacement, 4° C. or room temperature, 1 hour. Here is the method: To express the cloned human neurokinin-1-receptor (NK1R) transiently in COS, the cDNA for the human NK1R was cloned into the expression vector pCDM9 which was derived from pCDM8 (INVITROGEN) by inserting the ampicillin resistance gene (nucleotide 1973 to 2964 from BLUESCRIPT SK+ (trademark, STRATAGENE, La Jolla, Calif., USA)) into the Sac II site. Transfection of 20 ug of the plasmid DNA into 10 million COS cells was achieved by electroporation in 800 μof transfection buffer (135 mM NaCl, 1.2 mM CaCl2, 1.2 mM MgCl2 2.4 mM K2 HPO4, 0.6 mM KH2 PO4, 10 mM glucose, 10 mM N-2-hydroxyethyl-piperazine-N'-2-ethane sulphonic acid (HEPES) pH 7.4) at 260 V and 950 μusing the IBI GENEZAPPER (trademark IBI, New Haven, Conn., USA). The cells were incubated in 10% fetal calf serum, 2 mM glutamine, 100 U/ml penicillin-streptomycin, and 90% DMEM media (GIBCO, Grand Island, N.Y., USA) in 5% CO2 at 37° C. for three days before the binding assay.
To establish a stable cell line expressing cloned human NK1R, the cDNA was subcloned into the vector pRcCMV (INVITROGEN). Transfection of 20 ug of the plasmid DNA into CHO cells was achieved by electroporation in 800 μl of transfection buffer supplemented with 0.625 mg/ml Herring sperm DNA at 300 V and 950 μF using the IBI GENEZAPPER (IBI). The transfected cells were incubated in CHO media [10% fetal calf serum, 100 U/ml penicillin-streptomycin, 2 mM glutamine, 1/500 hypoxanthine-thymidine (ATCC), 90% IMDM media (JRH BIOSCIENCES, Lenexa, Kans., USA), 0.7 mg/ml G418 (GIBCO)] in 5% CO2 at 37° C. until colonies were visible. Each colony was separated and propagated. The cell clone with the highest number of human NK1R was selected for subsequent applications such as drug screening.
The binding assay of human NK1R expressed in either COS or CHO cells is based on the use of ^125 I-substance P (^125 I-SP, from DU PONT, Boston, Mass.) as a radioactively labeled ligand which competes with unlabeled substance P or any other ligand for binding to the human NK1R. Monolayer cell cultures of COS or CHO were dissociated by the non-enzymatic solution (SPECIALTY MEDIA, Lavellette, N.J.) and resuspended in appropriate volume of the binding buffer (50 mM Tris pH 7.5, 5 mM MnCl2, 150 mM NaCl, 0.04 mg/ml bacitracin, 0.004 mg/ml leupeptin, 0.2 mg/ml BSA, 0.01 mM phosphoramidon) such that 200 μl of the cell suspension would give rise to about 10,000 cpm of specific ^125 I-SP binding (approximately 50,000 to 200,000 cells). In the binding assay, 200 ul of cells were added to a tube containing 20 ul of 1.5 to 2.5 nM of ^125 I-SP and 20 μl of unlabeled substance P or any other test compound. The tubes were incubated at 4° C. or at room temperature for 1 hour with gentle shaking. The bound radioactivity was separated from unbound radioactivity by GF/C filter (BRANDEL, Gaithersburg, Md.) which was prewetted with 0.1% polyethylenimine. The filter was washed with 3 ml of wash buffer (50 mM Tris pH 7.5, 5 mM MnCl2, 150 mM NaCl) three times and its radioactivity was determined by gamma counter.

Molecules are shown by their SMILES. Where a name gives a salt, the structure may show the parent alone. Where only a bound is given, the exact number is not on record here.

T1 sequence (P25103 whole entry): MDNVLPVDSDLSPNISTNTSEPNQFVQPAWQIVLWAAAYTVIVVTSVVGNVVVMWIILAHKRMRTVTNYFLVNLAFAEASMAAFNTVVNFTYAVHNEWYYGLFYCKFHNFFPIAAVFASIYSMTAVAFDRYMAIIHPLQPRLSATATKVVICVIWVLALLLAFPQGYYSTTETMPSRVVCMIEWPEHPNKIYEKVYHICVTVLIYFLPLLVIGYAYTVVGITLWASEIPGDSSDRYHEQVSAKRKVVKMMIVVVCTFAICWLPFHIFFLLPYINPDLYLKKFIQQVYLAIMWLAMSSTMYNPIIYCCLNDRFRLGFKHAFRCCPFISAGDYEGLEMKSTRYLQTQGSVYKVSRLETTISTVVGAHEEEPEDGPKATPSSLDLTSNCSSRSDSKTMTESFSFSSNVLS

Usually IC50 stands for the concentration that inhibits the measured activity by half. For `Cc1cc(C)cc(COC2C3CCN(CC3)C2C(Cc2ccccc2)c2ccccc2)c1` (single isomer, unassigned) [1: ISOMER A], the 50% inhibitory concentration (IC50) stood at 2.4 nM.

Molecule `Cc1cc(C)cc(COC2C3CCN(CC3)C2C(Cc2ccccc2)c2ccccc2)c1` (single isomer, unassigned) [1: ISOMER B] gave an IC50 of 1.8 nM.

Take `Cc1cc(C)cc(COC2C3CCN(CC3)C2C(Cc2ccccc2)c2ccccc2)c1` (single isomer, unassigned) [1: ISOMER C]: the half-maximal inhibitory concentration (IC50) is above 100 nM.

As for `FC(F)(F)c1cc(COC2C3CCN(CC3)C2C(Cc2ccccc2)c2ccccc2)cc(C(F)(F)F)c1` (single isomer, unassigned) [2: ISOMER A], the IC50 is 4.5 nM.

As for `FC(F)(F)c1cc(COC2C3CCN(CC3)C2C(Cc2ccccc2)c2ccccc2)cc(C(F)(F)F)c1` (single isomer, unassigned) [2: ISOMER B], the IC50 was found to be 6.3 nM.

For `FC(F)(F)c1cc(COC2C3CCN(CC3)C2C(Cc2ccccc2)c2ccccc2)cc(C(F)(F)F)c1` (single isomer, unassigned) [2: ISOMER C], the IC50 was above 100 nM.

For the molecule `COc1ccc(C(Cc2ccccc2)C2C(OCc3cc(C(F)(F)F)cc(C(F)(F)F)c3)C3CCN2CC3)cc1` (single isomer, unassigned) [3: ISOMER A], the IC50 was 3 nM.

Regarding `COc1cccc(C(Cc2ccccc2)C2C(OCc3cc(C(F)(F)F)cc(C(F)(F)F)c3)C3CCN2CC3)c1` (single isomer, unassigned) [4: ISOMER A], the concentration for half-maximal inhibition (IC50) turned out to be 10 nM.

`COc1cccc(C(Cc2ccccc2)C2C(OCc3cc(C(F)(F)F)cc(C(F)(F)F)c3)C3CCN2CC3)c1` (single isomer, unassigned) [4: ISOMER B] yielded an IC50 of 1.8 nM.

In turn, `FC(F)(F)c1cc(COC2C3CCN(CC3)C2C(c2ccccc2)C2CCCCC2)cc(C(F)(F)F)c1` (stereo not drawn) [Example 5, 3-(3,5-Bis(trifluoromethyl)phenyl)methyloxy-2-(α-cyclohexylbenzyl)-1-azabicyclo[2.2.2]octane oxalate hemihydrate] came in with an IC50 of 3 nM. Against the preceding molecule, the IC50 is about 1.7-fold higher.

For the origin of these results see US5288730A, “Azabicyclic compounds, pharmaceutical compositions containing them and their use in therapy” (Merck Sharp & Dohme Limited, priority 1991, dated 1994).
